# Patent publication US12384797B2, “Thioeno[3,2-b] pyridin-7-amine compounds for treating familial dysautonomia” (PTC THERAPEUTICS, INC., priority 2019, dated 2025)
# Tested on: Elongator complex protein 1 (ELP1, also referred to as IKBKAP)
# Test: IKBKAP-HTRF assay (IKBKAP protein in lysates of FD patient-derived fibroblasts)
# Type: cell-based, human
# Settings: 48 hours incubation, 7-point concentration curve
# In short: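 Sandwich HTRF with two labelled anti-IKAP antibodies (overnight, 4 °C) measured IKBKAP in lysates of FD patient fibroblasts. Cells were exposed to compound for 48 h at 37 °C (7-point curve, 3.16-fold steps, triplicates). EC2x is the dose doubling IKBKAP versus DMSO control; MFI is sample ΔF divided by vehicle ΔF.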
SMILES,EC2x for IKBKAP protein expression (concentration producing two times the amount of IKBKAP protein vs DMSO vehicle control),MFI (maximum fold increase in IKBKAP protein abundance relative to the vehicle control)
"C[C@H](N)Cc1sc2c(NCc3ccco3)cc(C#N)nc2c1Br [Compound 49, 2-[(2S)-2-aminopropyl]-3-bromo-7-{[(furan-2-yl)methyl]amino}thieno[3,2-b]pyridine-5-carbonitrile]",***** (≤0.005 μM is indicated by five stars (*****)),***** (>4.9 is indicated by five stars (*****))
"C[C@H](N)Cc1sc2c(NCc3ccco3)cc(C#N)nc2c1C#N [Compound 50, 2-[(2S)-2-aminopropyl]-7-{[(furan-2-yl)methyl]amino}thieno[3,2-b]pyridine-3,5-dicarbonitrile]",**** (between >0.005 μM and ≤0.02 μM is indicated by four stars (****)),**** (between >3.9 and ≤4.9 is indicated by four stars (****))
"C[C@H](N)Cc1sc2c(NCc3ccco3)cc(Cl)nc2c1C1CC1 [Compound 51, 2-[(2S)-2-aminopropyl]-5-chloro-3-cyclopropyl-N-[(furan-2-yl)methyl]thieno[3,2-b]pyridin-7-amine]",***** (≤0.005 μM is indicated by five stars (*****)),***** (>4.9 is indicated by five stars (*****))
"C[C@H](N)Cc1sc2c(NCc3cccs3)cc(Cl)nc2c1Cl [Compound 52, 2-[(2S)-2-aminopropyl]-3,5-dichloro-N-[(thiophen-2-yl)methyl]thieno[3,2-b]pyridin-7-amine]",***** (≤0.005 μM is indicated by five stars (*****)),***** (>4.9 is indicated by five stars (*****))
"C[C@H](N)Cc1sc2c(NCc3cccs3)cc(Cl)nc2c1Br [Compound 53, 2-[(2S)-2-aminopropyl]-3-bromo-5-chloro-N-[(thiophen-2-yl)methyl]thieno[3,2-b]pyridin-7-amine]",***** (≤0.005 μM is indicated by five stars (*****)),***** (>4.9 is indicated by five stars (*****))
"Cc1c(C[C@H](C)N)sc2c(NCc3cccs3)cc(C#N)nc12 [Compound 54, 2-[(2S)-2-aminopropyl]-3-methyl-7-{[(thiophen-2-yl)methyl]amino}thieno[3,2-b]pyridine-5-carbonitrile]",***** (≤0.005 μM is indicated by five stars (*****)),***** (>4.9 is indicated by five stars (*****))
"Cc1c([C@H](C)N)sc2c(NCc3cccs3)cc(Cl)nc12 [Compound 55, 2-[(1S)-1-aminoethyl]-5-chloro-3-methyl-N-[(thiophen-2-yl)methyl]thieno[3,2-b]pyridin-7-amine]",**** (between >0.005 μM and ≤0.02 μM is indicated by four stars (****)),**** (between >3.9 and ≤4.9 is indicated by four stars (****))
"Cc1c([C@@H](C)N)sc2c(NCc3cccs3)cc(Cl)nc12 [Compound 56, 2-[(1R)-1-aminoethyl]-5-chloro-3-methyl-N-[(thiophen-2-yl)methyl]thieno[3,2-b]pyridin-7-amine]",* (An EC2x>1 μM is indicated by one star (*)),* (An MFI≤1.9 is indicated by one star (*))
"Cc1c(C[C@H](C)N)sc2c(NCc3nccs3)cc(Cl)nc12 [Compound 57, 2-[(2S)-2-aminopropyl]-5-chloro-3-methyl-N-[(1,3-thiazol-2-yl)methyl]thieno[3,2-b]pyridin-7-amine]",***** (≤0.005 μM is indicated by five stars (*****)),***** (>4.9 is indicated by five stars (*****))
"Cc1c(C[C@@H](N)CO)sc2c(NCc3ccco3)cc(Cl)nc12 [Compound 58, (2R)-2-amino-3-(5-chloro-7-{[(furan-2-yl)methyl]amino}-3-methylthieno[3,2-b]pyridin-2-yl)propan-1-ol]",***** (≤0.005 μM is indicated by five stars (*****)),***** (>4.9 is indicated by five stars (*****))
"Cc1c(C[C@H](N)CF)sc2c(NCc3ccco3)cc(Cl)nc12 [Compound 59, 2-[(2S)-2-amino-3-fluoropropyl]-5-chloro-N-[(furan-2-yl)methyl]-3-methylthieno[3,2-b]pyridin-7-amine]",*** (between >0.02 μM and ≤0.5 μM is indicated by three stars (***)),** (between >1.9 and ≤2.9 is indicated by two stars (**))
"Cc1cc(NCc2nccs2)c2sc(C[C@H](C)N)c(Cl)c2n1 [Compound 60, 2-[(2S)-2-aminopropyl]-3-chloro-5-methyl-N-[(1,3-thiazol-2-yl)methyl]thieno[3,2-b]pyridin-7-amine]",**** (between >0.005 μM and ≤0.02 μM is indicated by four stars (****)),***** (>4.9 is indicated by five stars (*****))
"Cc1c(C[C@@H](N)CC(C)C)sc2c(NCc3cccs3)cc(Cl)nc12 [Compound 61, 2-[(2S)-2-amino-4-methylpentyl]-5-chloro-3-methyl-N-[(thiophen-2-yl)methyl]thieno[3,2-b]pyridin-7-amine]",***** (≤0.005 μM is indicated by five stars (*****)),***** (>4.9 is indicated by five stars (*****))
"CC(C)C[C@H](N)Cc1sc2c(NCc3nccs3)cc(Cl)nc2c1Br [Compound 62, 2-[(2S)-2-amino-4-methylpentyl]-3-bromo-5-chloro-N-[(1,3-thiazol-2-yl)methyl]thieno[3,2-b]pyridin-7-amine]",***** (≤0.005 μM is indicated by five stars (*****)),***** (>4.9 is indicated by five stars (*****))
"N[C@H](CF)Cc1sc2c(NCc3cccs3)cc(Cl)nc2c1Br [Compound 63, 2-[(2S)-2-amino-3-fluoropropyl]-3-bromo-5-chloro-N-[(thiophen-2-yl)methyl]thieno[3,2-b]pyridin-7-amine]",*** (between >0.02 μM and ≤0.5 μM is indicated by three stars (***)),** (between >1.9 and ≤2.9 is indicated by two stars (**))
"N[C@@H](COC(F)(F)F)Cc1sc2c(NCc3nccs3)cc(Cl)nc2c1Br [Compound 64, 2-[(2R)-2-amino-3-(trifluoromethoxy)propyl]-3-bromo-5-chloro-N-[(1,3-thiazol-2-yl)methyl]thieno[3,2-b]pyridin-7-amine]",**** (between >0.005 μM and ≤0.02 μM is indicated by four stars (****)),***** (>4.9 is indicated by five stars (*****))
"OC[C@@H](Cc1sc2c(NCc3nccs3)cc(Cl)nc2c1Br)NC(F)(F)F [Compound 65, (2R)-3-(3-bromo-5-chloro-7-{[(1,3-thiazol-2-yl)methyl]amino}thieno[3,2-b]pyridin-2-yl)-2-[(trifluoromethyl)amino]propan-1-ol]",*** (between >0.02 μM and ≤0.5 μM is indicated by three stars (***)),***** (>4.9 is indicated by five stars (*****))
"N[C@H](CF)Cc1sc2c(NCc3nccs3)cc(Cl)nc2c1Br [Compound 66, 2-[(2S)-2-amino-3-fluoropropyl]-3-bromo-5-chloro-N-[(1,3-thiazol-2-yl)methyl]thieno[3,2-b]pyridin-7-amine]",*** (between >0.02 μM and ≤0.5 μM is indicated by three stars (***)),* (An MFI≤1.9 is indicated by one star (*))
"N[C@H](CF)Cc1sc2c(NCc3nccs3)cc(Cl)nc2c1Cl [Compound 67, 2-[(2S)-2-amino-3-fluoropropyl]-3,5-dichloro-N-[(1,3-thiazol-2-yl)methyl]thieno[3,2-b]pyridin-7-amine]",* (An EC2x>1 μM is indicated by one star (*)),* (An MFI≤1.9 is indicated by one star (*))
"Cc1c(C[C@@H](N)CC(C)C)sc2c(NCc3nccs3)cc(Cl)nc12 [Compound 68, 2-[(2S)-2-amino-4-methylpentyl]-5-chloro-3-methyl-N-[(1,3-thiazol-2-yl)methyl]thieno[3,2-b]pyridin-7-amine]",**** (between >0.005 μM and ≤0.02 μM is indicated by four stars (****)),***** (>4.9 is indicated by five stars (*****))
